{"source": "patent EP0942896B1", "about": "“SUBSTITUTED PHENOLS AND THIOPHENOLS USEFUL AS ANTIOXIDANT AGENTS” (Aventis Pharmaceuticals Inc., priority 1996, dated 1998)", "key": {"[1]": {"tested_on": "Choleterol-Fed Female New Zealand White Rabbits", "assay": "Hypocholesterolemic effects in cholesterol-fed rabbits: serum cholesterol, lipoprotein cholesterol, triglycerides", "assay_type": "in vivo", "conditions": "% of control, diet 0.4%, 7 days, 0.2% cholesterol chow, N = 5", "from_the_text": "Perform five independent experiments in the following manner. Each study has a control group and 1-5 groups treated with MDL compound (N = 5 per group). Feed Female New Zealand White rabbits (Hazelton, ∼ 2.0-2.3 kg) 0.2% cholesterol enriched rabbit chow (Purina #5322) with or without 0.4% MDL compound. Solubilize the MDL compounds in 100% ethanol. Spray the chow with the MDL mixtures and allow to dry overnight in a chemical fume hood. Spray control chow with ethanol. Feed rabbits 100 grams food per day for 7 days (0.6% MDL 103,491 were fed for 14 days); make available water ad libitum. On day 7, bleed (~ 2 mL) rabbits (fasted overnight) from a marginal ear vein. Euthanize rabbits by carbon dioxide overdose. Record the total body and liver weights in grams. Record food as grams • day^-1 · rabbit^-1. Use aliquots of fresh serum for clinical chemistries, lipoprotein cholesterol determination, thiobarbituric acid reactive substances (TBARS) and compound and metabolite concentrations in serum. Freeze livers (∼ 5 gram aliquots) at -20°C for compound and metabolite concentration determination at a later time.\nAllow blood to clot at room temperature for 30 minutes. Obtain serum after centrifugation for 10 min at 5°C at 3000 rpm in a Beckman GPKR centrifuge with a GH rotor. Analyze by a COBAS MIRA autoanalyzer (Roche Diagnostics) using Roche diagnostic reagents for total cholesterol (CHOL, kit # 44334) and triglyceride (TG, kit # 44120). Calculate cholesterol and triglycerides as mg/dL.\nSeparate lipoprotein fractions (very low density lipoprotein, VLDL, low density lipoprotein, LDL and high density lipoprotein, HDL) on a Sepharose 6HR column (1 x 30 cm, Pharmacia) attached to a Waters Powerline HPLC system. Inject serum (50 µL) onto the column and elute with phosphate buffered saline, pH 7.4, at a flow rate of 0.5 mL/min. Add cholesterol reagent (Roche Diagnostics, kit # 44334, diluted with 20 mL water and then with 20 mL of 0.9% saline) at 0.2 mL/min to the post column eluant and incubate in a knitted PFTE Kratos reaction coil (Applied Biosystems) at 37°C for 5 min. Measure absorbance at 500 nm. The lipoprotein subfractions are quantitated as follows: (total serum cholesterol) x (% area under the curve for each subfraction) [formula]"}, "oxidation of lipids": {"tested_on": "oxidation of lipids", "assay": "Conjugated diene lag phase determination on pooled serum of treated rats", "assay_type": "in vivo, Male Sprague-Dawley rats", "conditions": "not normalized, mean of 2 determinations of pooled rat serum (N = 5), diet 0.3%, 4 days", "from_the_text": "A typical experiment consists of 4-6 groups of rats (N = 5 per group) with I group being a control which receives no MDL compound and the other groups being treated with 0.3% MDL compound. Some of the compounds are either repeated at 0.3% or evaluated again at the lower dose of 0.1%. House Male Sprague-Dawley rats, 50-100 g, (Harlan Laboratories, Indianapolis, IN) in groups of 5, feeding ad libitum water and Purina Rodent chow (#5002) with or without MDL compound as a dietary admixture for 4 days. Make dietary admixtures (0.3%) by mixing 1.2 grams of an MDL compound with 400 grams of Purina rodent chow (#5002). Mix the MDL compound with approximately 50 grams of food using a mortar and pestle. This is added to the remainder of the food and mixed for 3 hours on a rotary mixer. In the morning of day 5, anesthetize non-fasted rats with carbon dioxide, and collect blood by cardiac puncture. Sacrifice rats by cervical dislocation. Record body weights and liver weights in grams. Record food consumption as grams • day^-1 • rat^-1. Deaths are recorded as mortality. Use aliquots of fresh serum for clinical chemistries, thiobarbituric acid reactive substances (TBARS) and conjugated diene measurements. Freeze aliquots of serum (∼ 0.5mL) and whole livers at -20°C for compound and metabolite concentration determination at a later time.\nConjugated diene lag phase is another indicator of the oxidation of lipids. Lipids exposed to Cu^++ form conjugated dienes that absorb ultraviolet light in the range of 230 to 235 nm. The lag phase of diene formation gives an indication of the amount of oxidation of the lipids. A lag phase longer than control samples indicate inhibition of the oxidation. Determine conjugated diene lay phase using a Varian DMS200 spectrophotometer (fitted with a constant temperature, 5 cuvette sample changer) at 30°C. Add twenty (20) µL of pooled serum to cuvettes containing 3.0mL phosphate buffered saline, pH 7.5, and mix. Measure the absorbances of all cuvettes and set the instrument baseline to zero using the lowest absorbing sample. Next, add 100µL of 1 mmol CuSO4 and mix immediately. Record the absorbance of each cuvette at 2 min intervals for a period of 840 min. Capture the data and transfer to a Microsoft EXCEL® spreadsheet where the curves are smoothed and differentials obtained. Determine lag times mathematically as minutes. Pool serum samples (N = 5); data presented are the mean values of 2 determinations. Compare serum samples from treated rats to serum samples from control rats that received no MDL compound."}, "VCAM-1": {"tested_on": "VCAM-1", "assay": "Inhibition of VCAM-1 expression in proliferating human umbilical vein endothelial cells (cell ELISA)", "assay_type": "cell-based", "conditions": "HUVEC, coincubated with tumor necrosis factor-alpha about 20 to 24 hr, average of three runs, numbers in parentheses represent negative values, read-out: VCAM-1 (% inh. 50 µM)", "experimental": "Plate proliferating human umbilical vein endothelial cells (HUVEC) or human aortic smooth muscle cells (HASMC) from Clonetics (San Diego, CA) onto 96-well plates in 100 µL medium per well at 20,000 cells per cm^2. Maintain the cultures in growth medium (EGM or SMGM2, Clonetics, San Diego, CA) for two days prior to addition of cytokines or drugs. Add cytokines plus or minus compounds for 20 to 24 hours prior to analysis for adhesion molecule levels. Add tumor necrosis factor (Genzyme, Cambridge, MA) to cultures at 500-1000 units/mL to stimulate ICAM-1 expression. Add interleukin-4 (GIBCO-BRL, Gaithersburg, MD) to cultures at 100-200 pg/mL to stimulate VCAM-1 expression. […] Remove the culture medium, and wash the monolayers twice with Hanks buffered saline solution (HBSS) at room temperature. Add the primary antibody (anti-human VCAM-1 from Upstate Biotechnology, Inc., Lake Placid, NY or anti-human ICAM-1 from Immunotech, Inc., Westbrook, ME) to each well (1 µg/mL in HBSS plus 5% newborn calf serum, GIBCO-BRL, Gaithersburg, MD) and incubate at 37°C for 1 hr. Wash the wells twice with HBSS, then add 100 µL of a 1/1000 dilution of goat anti-mouse IgG conjugated to horse radish peroxidase (BioRad, Hercules, CA) in HBSS plus 5% newborn calf serum to each well and incubated for 1 hr at 37°C. […] Measure absorbance at 450 nm with a plate reader. […]"}}, "data": [{"smiles": "CC(C)=CCC[C@H](C)CCOc1cc(C(C)(C)C)c(O)c(C(C)(C)C)c1", "note": "[MDL 103,294, Phenol, 2,6-bis(1,1-dimethylethyl)-4-[(3,7-dimethyl-6-octenyl)oxy]-, (S)-]", "values": [{"measurement": "HDL", "setting": "[1]; High Density lipoprotein cholesterol", "result": 192, "unit": "%"}, {"measurement": "LDL", "setting": "[1]; Low Density lipoprotein cholesterol", "result": 82, "unit": "%"}, {"measurement": "chol tot.", "setting": "[1]; total cholesterol in serum, fasted overnight", "result": 94, "unit": "%"}, {"measurement": "TRIG", "setting": "[1]; triglycerides in serum", "result": 197, "unit": "%"}]}, {"smiles": "CC(C)=CCCC(C)CCSc1cc(C(C)(C)C)c(O)c(C(C)(C)C)c1", "note": "(centres unmarked) [MDL 103,960, Phenol, 2,6-bis(1,1-dimethylethyl)-4-[(3,7-dimethyl-6-octenyl)thio]-]", "values": [{"measurement": "CONJ. DIENE", "setting": "oxidation of lipids", "result": 363, "unit": "min"}, {"measurement": "inhibition at 50 µM", "setting": "VCAM-1", "result": 25.7, "unit": "%"}]}, {"smiles": "CC(C)CCCC(C)CCOc1ccc(O)c(C(C)(C)C)c1", "note": "(centres unmarked) [MDL 104,191, Phenol, 2-(1,1-dimethylethyl)-4-[(3,7-dimethyloctyl)oxy]-]", "values": [{"measurement": "CONJ. DIENE", "setting": "oxidation of lipids", "result": 708, "unit": "min"}, {"measurement": "inhibition at 50 µM", "setting": "VCAM-1", "result": 34.3, "unit": "%"}]}]}
